Data reported in PMC11995724, “Antibiotic target discovery by integrated phenotypic and activity-based profiling of electrophilic fragments” (Cell chemical biology, 2025).

Assay: in vitro
Details: human, hek293t cells

Compound	viability at 48 h, 25 µM
C=CC(=O)N1CCCC(n2cc(C)cn2)C1 (stereo not shown) [3-M12, 1-[3-(4-methyl-1H-pyrazol-1-yl)piperidin-1-yl]prop-2-en-1-one]	94.4%
C=CC(=O)NCCn1nc(C)cc1C [3-M13, N-[2-(3,5-dimethyl-1H-pyrazol-1-yl)ethyl]prop-2-enamide]	56.9%
C=CC(=O)N1CCC(C(=O)NC(C)(C)CSC)CC1 [3-M14, N-[2-methyl-1-(methylsulfanyl)propan-2-yl]-1-(prop-2-enoyl)piperidine-4-carboxamide]	153%
C=CC(=O)N1CCCn2ncc(C3CC3)c21 [3-M15, 1-{3-cyclopropyl-4H,5H,6H,7H-pyrazolo[1,5-a]pyrimidin-4-yl}prop-2-en-1-one]	1.25%
C=CC(=O)N1CCC(C(=O)Oc2ccc(NC(C)=O)cc2)CC1 [3-M16, 4-acetamidophenyl 1-(prop-2-enoyl)piperidine-4-carboxylate]	93.3%
C=CC(=O)NCCC(=O)N1CCC(c2ncccn2)CC1 [3-M17, N-{3-oxo-3-[4-(pyrimidin-2-yl)piperidin-1-yl]propyl}prop-2-enamide]	62.4%
C=CC(=O)Nc1cnn(CCN2CCCC2=O)c1 [3-M18, N-{1-[2-(2-oxopyrrolidin-1-yl)ethyl]-1H-pyrazol-4-yl}prop-2-enamide]	90%
C=CC(=O)N(CC)CC(=O)Nc1ccc2c(c1)nc1n2CCCCC1 [3-M19, N-[({1,8-diazatricyclo[7.5.0.0,2,7]tetradeca-2,4,6,8-tetraen-5-yl}carbamoyl)methyl]-N-ethylprop-2-enamide]	35.8%
C=CC(=O)NCCc1nccs1 [3-M20, N-[2-(1,3-thiazol-2-yl)ethyl]prop-2-enamide]	89.6%
C=CC(=O)N1CCC(C(=O)NCc2ccc(-c3n[nH]c(C)n3)cc2)CC1 [3-M21, N-{[4-(5-methyl-1H-1,2,4-triazol-3-yl)phenyl]methyl}-1-(prop-2-enoyl)piperidine-4-carboxamide]	56.1%
C=CC(=O)NC(C)Cc1cccn1C (stereo not shown) [3-M22, N-[1-(1-methyl-1H-pyrrol-2-yl)propan-2-yl]prop-2-enamide]	70.2%
C=CC(=O)N1CCC(C(=O)NCc2ccccc2-n2cccn2)CC1 [3-N03, 1-(prop-2-enoyl)-N-{[2-(1H-pyrazol-1-yl)phenyl]methyl}piperidine-4-carboxamide]	68%
C=CC(=O)N1CCC(c2nnc(C)o2)CC1 [3-N04, 1-[4-(5-methyl-1,3,4-oxadiazol-2-yl)piperidin-1-yl]prop-2-en-1-one]	87.3%
C=CC(=O)N1CCC(C(=O)NCc2ccc(C(N)=O)nc2)CC1 [3-N05, 5-({[1-(prop-2-enoyl)piperidin-4-yl]formamido}methyl)pyridine-2-carboxamide]	59.8%
C=CC(=O)NCc1ccc(C(=O)N2CCCOC(C)(C)C2)cc1 [3-N06, N-{[4-(2,2-dimethyl-1,4-oxazepane-4-carbonyl)phenyl]methyl}prop-2-enamide]	70.7%
C=CC(=O)NCc1nnc2n1CCCCC2 [3-N07, N-({5H,6H,7H,8H,9H-[1,2,4]triazolo[4,3-a]azepin-3-yl}methyl)prop-2-enamide]	43.2%
C=CC(=O)NCc1n[nH]c(=O)n1C1CC1 [3-N08, N-[(4-cyclopropyl-5-oxo-4,5-dihydro-1H-1,2,4-triazol-3-yl)methyl]prop-2-enamide]	80%
C=CC(=O)N1CCc2c(ncn2-c2ccccc2)C1 [3-N09, 1-{1-phenyl-1H,4H,5H,6H,7H-imidazo[4,5-c]pyridin-5-yl}prop-2-en-1-one]	70.1%
C=CC(=O)N1CCC(C(=O)NCc2ccc(S(N)(=O)=O)cc2)CC1 [3-N10, 1-(prop-2-enoyl)-N-[(4-sulfamoylphenyl)methyl]piperidine-4-carboxamide]	85.1%
C=CC(=O)NC1CCn2cccc2C1 (stereo not shown) [3-N11, N-(5,6,7,8-tetrahydroindolizin-7-yl)prop-2-enamide]	71.4%
C=CC(=O)N1CCC(C(=O)NCc2cccc(Cl)c2F)CC1 [3-N12, N-[(3-chloro-2-fluorophenyl)methyl]-1-(prop-2-enoyl)piperidine-4-carboxamide]	87.6%
C=CC(=O)NC(C)c1nnc(-c2ccccc2F)s1 (stereo not shown) [3-N13, N-{1-[5-(2-fluorophenyl)-1,3,4-thiadiazol-2-yl]ethyl}prop-2-enamide]	76%
C=CC(=O)NC(c1ccc(F)cc1)c1ccccn1 (stereo not shown) [3-N14, N-[(4-fluorophenyl)(pyridin-2-yl)methyl]prop-2-enamide]	97%
C=CC(=O)NCc1cc(Cl)cc(S(C)(=O)=O)c1 [3-N15, N-[(3-chloro-5-methanesulfonylphenyl)methyl]prop-2-enamide]	76.8%
C=CC(=O)N[C@H](C)c1ccccc1OC(C)C [3-N16, N-[(1R)-1-[2-(propan-2-yloxy)phenyl]ethyl]prop-2-enamide]	82.5%
C=CC(=O)NCC1CS(=O)(=O)c2ccccc2O1 (stereo not shown) [3-N17, N-[(4,4-dioxo-2,3-dihydro-1,4lambda6-benzoxathiin-2-yl)methyl]prop-2-enamide]	79.4%

Compound	viability at 48 h, 25 µM
C=CC(=O)N1Cc2c(C(=O)O)cnn2CC1C (stereo not shown) [3-N18, 6-methyl-5-(prop-2-enoyl)-4H,5H,6H,7H-pyrazolo[1,5-a]pyrazine-3-carboxylic acid]	87%
C=CC(=O)NCCc1nc(C)no1 [3-N19, N-[2-(3-methyl-1,2,4-oxadiazol-5-yl)ethyl]prop-2-enamide]	74.2%
C=CC(=O)NCc1nc2cc(F)ccc2o1 [3-N20, N-[(5-fluoro-1,3-benzoxazol-2-yl)methyl]prop-2-enamide]	84.7%
C=CC(=O)NCc1cn(C2CCCC2)nc1C [3-N21, N-[(1-cyclopentyl-3-methyl-1H-pyrazol-4-yl)methyl]prop-2-enamide]	55.5%
C=CC(=O)NCc1ccc(C(=O)NC2CC(=O)N(C)C2)cc1 (stereo not shown) [3-N22, N-(1-methyl-5-oxopyrrolidin-3-yl)-4-[(prop-2-enamido)methyl]benzamide]	81.2%
C=CC(=O)N1CCC(CCO)c2ccccc21 (stereo not shown) [3-O03, 1-[4-(2-hydroxyethyl)-1,2,3,4-tetrahydroquinolin-1-yl]prop-2-en-1-one]	58.4%
C=CC(=O)N1CCC(C(=O)NC[C@H]2C[C@@H](O)C2)(c2ccccc2)CC1 [3-O04, 4-phenyl-1-(prop-2-enoyl)-N-{[(1s,3s)-3-hydroxycyclobutyl]methyl}piperidine-4-carboxamide]	118%
C=CC(=O)NCc1ccc(C(=O)N2CCCC2)cc1 [3-O05, N-{[4-(pyrrolidine-1-carbonyl)phenyl]methyl}prop-2-enamide]	71.6%
C=CC(=O)Nc1cc(C)c(CC)cc1OC [3-O06, N-(4-ethyl-2-methoxy-5-methylphenyl)prop-2-enamide]	82%
C=CC(=O)N1CCC(Cc2nc3ccc(F)cc3o2)CC1 [3-O07, 1-{4-[(6-fluoro-1,3-benzoxazol-2-yl)methyl]piperidin-1-yl}prop-2-en-1-one]	47.3%
C=CC(=O)Nc1ccc(C(=O)N2CCC(S(=O)(=O)NC)C2)cc1 (stereo not shown) [3-O08, N-{4-[3-(methylsulfamoyl)pyrrolidine-1-carbonyl]phenyl}prop-2-enamide]	95.4%
C=CC(=O)N1CCCC2(CCCCO2)C1 (stereo not shown) [3-O09, 1-{1-oxa-8-azaspiro[5.5]undecan-8-yl}prop-2-en-1-one]	57%
C=CC(=O)N(C)CC(=O)N1CCN(C(=O)C2CCCCC2)CC1 [3-O10, N-[2-(4-cyclohexanecarbonylpiperazin-1-yl)-2-oxoethyl]-N-methylprop-2-enamide]	93.8%
C=CC(=O)N1CCOCC1c1noc(C)n1 (stereo not shown) [3-O11, 1-[3-(5-methyl-1,2,4-oxadiazol-3-yl)morpholin-4-yl]prop-2-en-1-one]	51.5%
C=CC(=O)N1CCC(C(=O)Nc2nncn2C)(c2ccccc2)CC1 [3-O12, N-(4-methyl-4H-1,2,4-triazol-3-yl)-4-phenyl-1-(prop-2-enoyl)piperidine-4-carboxamide]	106%
C=CC(=O)NCC1(S(=O)(=O)CC)CC1 [3-O13, N-{[1-(ethanesulfonyl)cyclopropyl]methyl}prop-2-enamide]	48.1%
C=CC(=O)N1CCC(C(=O)NCc2cnn(-c3ccccc3)c2)CC1 [3-O14, N-[(1-phenyl-1H-pyrazol-4-yl)methyl]-1-(prop-2-enoyl)piperidine-4-carboxamide]	91.1%
C=CC(=O)Nc1ccc2c(c1)S(=O)(=O)CC2 [3-O15, N-(1,1-dioxo-2,3-dihydro-1lambda6-benzothiophen-6-yl)prop-2-enamide]	63.9%
C=CC(=O)N1CCC(Cc2nccs2)C1 (stereo not shown) [3-O16, 1-{3-[(1,3-thiazol-2-yl)methyl]pyrrolidin-1-yl}prop-2-en-1-one]	98.7%
C=CC(=O)NCCC(=O)N1CC[S+]([O-])C(C)(C)CC1 (stereo not shown) [3-O17, N-[3-(7,7-dimethyl-1-oxo-1lambda4,4-thiazepan-4-yl)-3-oxopropyl]prop-2-enamide]	58.5%
C=CC(=O)NC1CCCN(C2CCCCC2)C1=O (stereo not shown) [3-O18, N-(1-cyclohexyl-2-oxopiperidin-3-yl)prop-2-enamide]	92.1%
C=CC(=O)N1CCC(C(=O)NCc2ccc(OC)cn2)CC1 [3-O19, N-[(5-methoxypyridin-2-yl)methyl]-1-(prop-2-enoyl)piperidine-4-carboxamide]	59%
C=CC(=O)N1CCCCC1c1nc2ccccc2o1 (stereo not shown) [3-O20, 1-[2-(1,3-benzoxazol-2-yl)piperidin-1-yl]prop-2-en-1-one]	82.3%
C=CC(=O)Nc1cnn(C2CCCC2)c1 [3-O21, N-(1-cyclopentyl-1H-pyrazol-4-yl)prop-2-enamide]	70.5%
C=CC(=O)NCc1cccc(C(C)(F)F)c1 [3-O22, N-{[3-(1,1-difluoroethyl)phenyl]methyl}prop-2-enamide]	136%
C=CC(=O)N1CCC(C(=O)NCc2ncnn2CC)CC1 [3-P03, N-[(1-ethyl-1H-1,2,4-triazol-5-yl)methyl]-1-(prop-2-enoyl)piperidine-4-carboxamide]	71.2%
